In test [1] the target is T1, LYN (Mus musculus, UniProt P25911).
T1 construct: LYN immunoprecipitated from unstimulated BMMCs
Kind of test: in vitro kinase assay with immunoprecipitated LYN and GST-SH3P7 substrate. In kind it is biochemical.

In the next test the target is T2, FYN (Homo sapiens, UniProt P06241).
T2 construct: recombinant human active protein kinase FYN (ProQinase, #0352-0000-1)
Kind of test: MicroScale thermophoresis, supported by nanoDSF. The format is binding.

In test [2] the target is T3, LYN (Homo sapiens, UniProt P07948).
T3 construct: recombinant human active protein kinase LYN (ProQinase, #0358-0000-1)
Kind of test: MicroScale thermophoresis, supported by nanoDSF thermal shift. In kind it is binding.

T2 sequence (P06241 2-537): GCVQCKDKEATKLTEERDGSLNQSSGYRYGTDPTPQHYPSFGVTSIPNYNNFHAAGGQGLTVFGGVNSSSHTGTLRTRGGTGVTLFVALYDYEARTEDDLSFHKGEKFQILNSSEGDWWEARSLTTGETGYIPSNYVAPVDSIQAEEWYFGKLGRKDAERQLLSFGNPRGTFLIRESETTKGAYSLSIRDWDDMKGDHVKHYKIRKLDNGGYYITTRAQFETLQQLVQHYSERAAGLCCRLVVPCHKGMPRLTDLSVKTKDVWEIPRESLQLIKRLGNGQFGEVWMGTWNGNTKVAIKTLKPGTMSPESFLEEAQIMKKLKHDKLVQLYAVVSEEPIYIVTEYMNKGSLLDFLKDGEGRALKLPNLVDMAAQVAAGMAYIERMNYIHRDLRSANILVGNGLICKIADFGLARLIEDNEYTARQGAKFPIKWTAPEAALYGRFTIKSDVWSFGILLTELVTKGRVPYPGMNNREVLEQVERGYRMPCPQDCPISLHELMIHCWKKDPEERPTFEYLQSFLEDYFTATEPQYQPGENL
T3 sequence (P07948 2-512): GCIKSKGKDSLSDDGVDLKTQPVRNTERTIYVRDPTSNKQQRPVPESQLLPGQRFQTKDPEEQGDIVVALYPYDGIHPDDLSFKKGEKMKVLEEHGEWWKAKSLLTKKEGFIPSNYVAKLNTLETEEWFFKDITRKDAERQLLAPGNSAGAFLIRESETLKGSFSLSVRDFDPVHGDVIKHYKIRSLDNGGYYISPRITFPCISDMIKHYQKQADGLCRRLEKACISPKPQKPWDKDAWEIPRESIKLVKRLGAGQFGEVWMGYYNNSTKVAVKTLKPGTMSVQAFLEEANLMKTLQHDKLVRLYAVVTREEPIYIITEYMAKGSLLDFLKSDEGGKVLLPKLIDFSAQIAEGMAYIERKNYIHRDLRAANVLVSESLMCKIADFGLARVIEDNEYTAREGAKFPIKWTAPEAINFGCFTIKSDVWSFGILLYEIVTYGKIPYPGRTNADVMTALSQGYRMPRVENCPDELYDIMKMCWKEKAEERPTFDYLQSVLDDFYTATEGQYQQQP
T1 sequence (P25911 2-512): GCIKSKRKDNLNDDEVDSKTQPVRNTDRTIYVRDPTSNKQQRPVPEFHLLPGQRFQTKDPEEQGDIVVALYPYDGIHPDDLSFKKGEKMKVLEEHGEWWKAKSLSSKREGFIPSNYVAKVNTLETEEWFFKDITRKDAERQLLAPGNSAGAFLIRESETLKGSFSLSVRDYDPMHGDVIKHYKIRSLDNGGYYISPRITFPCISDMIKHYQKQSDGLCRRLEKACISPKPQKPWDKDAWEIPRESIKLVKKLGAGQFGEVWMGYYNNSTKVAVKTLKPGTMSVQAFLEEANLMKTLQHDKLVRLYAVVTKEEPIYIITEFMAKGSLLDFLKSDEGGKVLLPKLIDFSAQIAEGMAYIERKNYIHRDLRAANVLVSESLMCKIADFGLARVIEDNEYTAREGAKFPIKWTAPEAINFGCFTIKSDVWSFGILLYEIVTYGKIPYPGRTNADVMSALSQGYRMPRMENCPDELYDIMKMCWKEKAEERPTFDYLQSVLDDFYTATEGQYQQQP

At LYN [1], `CC(C)(C)c1nc(-c2ccc(NC(=O)Nc3cccc(C(F)(F)F)c3)c3ccccc23)c2c(N)nccn12` [KIRA6] showed a 50% inhibitory concentration (IC50) of around 0.3 µM. Also, the figures for the dissociation constant (Kd) at FYN and at LYN [2] were 8.4 ± 2.6 µM and 3.2 ± 1.2 µM, respectively.

These data come from article PMC11830387, “KIRA6 is an Effective and Versatile Mast Cell Inhibitor of IgE‐mediated Activation” (European Journal of Immunology, 2024).
